Experimental findings from patent publication US20240246963A1, “BIFUNCTIONAL COMPOUNDS AND PHARMACEUTICAL USES THEREOF” (RISEN (SUZHOU) PHARMA TECH CO., LTD., priority 2022, published 2024) are described below.

This experiment deals with T1, RAS G12D protein (Homo sapiens, UniProt P01116, G12D).
T1 construct: host or cells: Aspc-1 (AsPC-1) cells
Nature of the experiment: Protein degradation study (western blot) in Aspc-1 cells. The class given is cell-based. The note with it: for percent protein degradation at 0.005 µM: 0.005 μM compound; for percent protein degradation at 0.05 µM: 0.05 μM compound; for DC50: half-maximum degradation concentration on G12D in Aspc-1 cells. Here is the method:
Aspc-1 (Cobioer, CBP60546) cells in exponential growth phase were inoculated on a 6-well cell culture plate (Corning, 3516) at density of 1E6/well; and cells in the plate were cultured in a 37° C. incubator containing 5%-carbon dioxide. The next day, test compounds were dissolved in DMSO (Sigma, RNBF5902) for the preparation of a 10-mM concentration stock solution. The stock solution was diluted with complete medium (RPMI-1640 supplemented with 10% fetal bovine serum, 1% penicillin-streptomycin), yielding working solutions of various concentrations. The plate, after the addition of compounds, was placed in a 5% carbon dioxide incubator, and incubated at 37° C. for 24 hours (final DMSO concentration was 0.1%). The plate was then removed from the incubator, and the cells were washed twice with precooled PBS (Gibco, 14190250), followed by addition of 80 μL RIPA (CST, 9806S) lysis buffer (containing protease inhibitor (Invitrogen™, AM2696)) to each well. The adherent cells were scraped off with a cell scraper, and the cell lysate was transferred to a 1.5 mL centrifuge tube followed with a 30-minute incubation on ice. The lysate was then clarified with centrifugation at 12000 rpm for 10 min at 4° C. The supernatant was transferred into a new 1.5 mL centrifuge tube, and protein concentration was measured with BCA protein detection kit (Thermo Fisher, 23225). G12D protein level was assessed by western blot. A mixture of cell lysate (40 μL) and loading buffer (10 μL, 5×SDS (Beyotime, P0015L)) was denatured in a water-bath at 95° C. for 10 min. The denatured protein sample, at 30 μg/well, was loaded into a corresponding well of a 4-20% Bis-Tris gel (Kingsley, M00656). Protein samples were initially electrophoresed at 80 V for 30 minutes, followed by 120 V for 40 minutes, until the bromophenol blue strip ran to an appropriate position. After electrophoresis, iBlot2 (Life Technologies, IB21001) was used to transfer the separated samples onto PVDF film. The PVDF membrane was washed with double-distilled water and then blocked in TBST (Thermo Scientific, 28360) buffer containing 5% non-fat milk, for 2 hours. Blocked membrane was rinsed with tris-buffered saline tween-2 (Thermo Scientific, 28360, TBST) three times, 10 minutes each. Membrane was then incubated with 1:1000 diluted RAS Gi2D primary antibody (CST, cat #14429S) overnight at 4° C. Membrane was rinsed in a way described previously followed by 1 hour incubation of secondary antibody at room temperature. After washing the film for three times with TBST, ECL color developing solution was applied, and image was captured with Biorad Chemi Doc gel imager. The band gray value was quantified (Image Lab), and protein degradation level was calculated according to the following formulas:
Level of RAS G12D protein expression=(RAS G12D−compound/β-Actin)−compound/(RAS G12D−DMSO/β-Actin−DMSO)
Level of degradation (%)=(1−Rate of RAS G12D protein expression)×100
Symbols of −, +, ++, +++, ++++, +++++ indicate that the degradation level of Ras protein induced by test compounds was 10% or less, 10 to 30%, 30 to 60%, 60 to 70%, 70 to 75%, and greater than 75%, respectively. “NT” indicates not tested.
“NT” indicates not tested.
(In general: Immunoblotting shows a protein as a band on a membrane.)

Where [1] appears, read: ASPC1, 24 h, Aspc-1 cells, 24 hours, read-out: Rate of protein degradation (%).

The term Dmax denotes the largest share of the target that was removed. As a reminder, the DC50 is the concentration at which degradation of the target reaches its halfway point.

A value given as a limit tells only on which side of the number the result lay.

T1 sequence (P01116 1-188 isoform P01116-2 G12D): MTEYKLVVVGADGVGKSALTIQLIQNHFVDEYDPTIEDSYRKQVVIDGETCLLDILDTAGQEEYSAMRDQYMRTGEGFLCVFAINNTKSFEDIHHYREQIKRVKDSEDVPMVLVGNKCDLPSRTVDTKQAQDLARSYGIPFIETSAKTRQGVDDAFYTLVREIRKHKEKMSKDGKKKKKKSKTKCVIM

As for `C#Cc1c(F)ccc2cc(O)cc(-c3ncc4c(N5CCC=CCC5)nc(OCC5(CN6CCC7(CC6)CC(N6CCC(c8cc9c(cc8F)c(N8CCC(=O)NC8=O)nn9C)CC6)C7)CC5)nc4c3F)c12` [Compound 206], under setting [1], the percent protein degradation at 0.005 µM was 10 to 30% and the percent protein degradation at 0.05 µM was in the range of 10 to 30%.
Consider `CCc1c(F)ccc2cc(O)cc(-c3ncc4c(N5CCC[C@]6(CCO6)C5)nc(OCC5(CN6CCC7(CC6)CC(N6CCC(c8ccc(C9CCC(=O)NC9=O)cn8)CC6)C7)CC5)nc4c3F)c12` (stereo partly shown) [Compound 230], for which, under setting [1], the percent protein degradation at 0.005 µM is at most 10% and the percent protein degradation at 0.05 µM is at most 10%.
For the compound `CCc1c(F)ccc2cc(O)cc(-c3ncc4c(N5CCC[C@@](C)(O)C5)nc(OCC5(CN6CCC7(CC6)CC(N6CCC(c8ccc(NC9CCC(=O)NC9=O)cc8F)CC6)C7)CC5)nc4c3F)c12` (stereo partly shown) [Compound 197], the percent protein degradation at 0.001 µM (ASPC1, 24 h, 1 nM compound, Aspc-1 cells, 24 hours, read-out: Rate of protein degradation (%)) was 10 to 30%. In addition, under setting [1], the percent protein degradation at 0.005 µM was 30 to 60% and the percent protein degradation at 0.05 µM lay in the range of 60 to 70%.
`CCc1c(F)ccc2cc(O)cc(-c3ncc4c(N5CCC[C@]6(CCO6)C5)nc(OCC5(CN6CCC7(CC6)CC(N6CCC(c8ccc(C(=O)NC9CCC(=O)NC9=O)c(F)c8)CC6)C7)CC5)nc4c3F)c12` (stereo partly shown) [Compound 209]: under setting [1], the percent protein degradation at 0.005 µM was at most 10% and the percent protein degradation at 0.05 µM was at most 10%.
The compound `Cn1nc(N2CCC(=O)NC2=O)c2cc(F)c(C3CCN(C4CC5(CCN(CC6(COc7nc(N8CCC[C@]9(CCO9)C8)c8cnc(-c9cc(O)cc%10ccc(F)c(F)c9%10)c(F)c8n7)CC6)CC5)C4)CC3)cc21` [Compound 241] displayed a 50% degradation concentration (DC50) of 11 to 50 nM. Further, under setting [1], the percent protein degradation at 0.005 µM was 60 to 70% and the percent protein degradation at 0.05 µM is 30 to 60%. In addition, the maximal degradation (Dmax) (ASPC1, G12D in Aspc-1 cells) is 71%.
As for `CCc1c(F)ccc2cc(O)cc(-c3ncc4c(N5CCC[C@]6(CCO6)C5)nc(OCC5(CN6CCC7(CC6)CC(N6CCC(c8cnn(C9CCC(=O)NC9=O)c(=O)c8)CC6)C7)CC5)nc4c3F)c12` (stereo partly shown) [Compound 227], under setting [1], the percent protein degradation at 0.005 µM was at most 10% and the percent protein degradation at 0.05 µM lay in the range of 10 to 30%.
`CCc1c(F)ccc2cc(O)cc(-c3ncc4c(N5CCC[C@]6(CCO6)C5)nc(OCC5(CN6CCC(c7ccc8c(C9CCC(=O)NC9=O)nn(C)c8c7)CC6)CC5)nc4c3F)c12` (stereo partly shown) [Compound 212]: under setting [1], the percent protein degradation at 0.005 µM was at most 10% and the percent protein degradation at 0.05 µM was in the range of 10 to 30%.
The like results for `CCc1c(F)ccc2cc(O)cc(-c3ncc4c(N5CCC[C@]6(CCO6)C5)nc(OCC5(CN6CCC(N7CCC(c8ccc9c(N%10CCC(=O)NC%10=O)nn(C)c9c8)CC7)CC6)CC5)nc4c3F)c12` [Compound 218] were, in that order, 10 to 30% and 30 to 60%.
In the case of `CCc1c(F)ccc2cc(O)cc(-c3ncc4c(N5CCC[C@]6(CCO6)C5)nc(OCC5(CN6CCC7(CCC(N8Cc9cc%10c(cc9C8)C(=O)N(C8CCC(=O)NC8=O)C%10=O)CC7)CC6)CC5)nc4c3F)c12` (stereo partly shown) [Compound 233], under setting [1], the percent protein degradation at 0.005 µM fell in the range of 10 to 30% and the percent protein degradation at 0.05 µM fell in the range of 30 to 60%.
Consider `CCc1c(F)ccc2cc(O)cc(-c3ncc4c(N5CCC[C@@](C)(O)C5)nc(OCC5(CN6CCC7(CC6)CC(N6CC=C(c8ccc9c(c8)CN(C8CCC(=O)NC8=O)C9=O)CC6)C7)CC5)nc4c3F)c12` (stereo partly shown) [Compound 196], for which the DC50 is 1 to 10 nM.
As to `CCc1c(F)ccc2cc(O)cc(-c3ncc4c(N5CCC[C@]6(CCO6)C5)nc(OCC5(CN6CCC7(CC6)CC(N6Cc8cc9c(cc8C6)C(=O)N(C6CCC(=O)NC6=O)C9=O)C7)CC5)nc4c3F)c12` (stereo partly shown) [Compound 231], under setting [1], the percent protein degradation at 0.005 µM was in the range of 10 to 30% and the percent protein degradation at 0.05 µM was in the range of 30 to 60%.
`CCc1c(F)ccc2cc(O)cc(-c3ncc4c(N5CCC[C@@](C)(O)C5)nc(OC5CCN(CC(=O)N6CCC7(CC6)CC(N6CCC(c8ccc9c(C%10CCC(=O)NC%10=O)nn(C)c9c8)CC6)C7)CC5)nc4c3F)c12` (stereo partly shown) [Compound 194] showed a half-maximal degradation concentration (DC50) of over 1000 nM.
